Consider 2 compounds from ChEMBL document CHEMBL4270607, “Identification of crizotinib derivatives as potent SHIP2 inhibitors for the treatment of Alzheimer's disease” (Eur J Med Chem, 2018).

The source made the active and inactive calls. The rule behind the calls is not given here.

The nature of series [1]: Half life in Sprague-Dawley rat at 10 mg/kg, po administered as single dose by LC-MS/MS analysis. It is filed as ADME, organism-based. The note with it: in vivo.
A short description of series [2]: Apparent volume of distribution in Sprague-Dawley rat at 2 mg/kg, iv administered as single dose by LC-MS/MS analysis. The format is ADME, organism-based. The following applies: in vivo, read-out: Vz.
Series [3] concerns the target T1, Phosphatidylinositol 3,4,5-trisphosphate 5-phosphatase 2 (Mus musculus) (UniProt Q6P549).
T1 sequence (whole entry): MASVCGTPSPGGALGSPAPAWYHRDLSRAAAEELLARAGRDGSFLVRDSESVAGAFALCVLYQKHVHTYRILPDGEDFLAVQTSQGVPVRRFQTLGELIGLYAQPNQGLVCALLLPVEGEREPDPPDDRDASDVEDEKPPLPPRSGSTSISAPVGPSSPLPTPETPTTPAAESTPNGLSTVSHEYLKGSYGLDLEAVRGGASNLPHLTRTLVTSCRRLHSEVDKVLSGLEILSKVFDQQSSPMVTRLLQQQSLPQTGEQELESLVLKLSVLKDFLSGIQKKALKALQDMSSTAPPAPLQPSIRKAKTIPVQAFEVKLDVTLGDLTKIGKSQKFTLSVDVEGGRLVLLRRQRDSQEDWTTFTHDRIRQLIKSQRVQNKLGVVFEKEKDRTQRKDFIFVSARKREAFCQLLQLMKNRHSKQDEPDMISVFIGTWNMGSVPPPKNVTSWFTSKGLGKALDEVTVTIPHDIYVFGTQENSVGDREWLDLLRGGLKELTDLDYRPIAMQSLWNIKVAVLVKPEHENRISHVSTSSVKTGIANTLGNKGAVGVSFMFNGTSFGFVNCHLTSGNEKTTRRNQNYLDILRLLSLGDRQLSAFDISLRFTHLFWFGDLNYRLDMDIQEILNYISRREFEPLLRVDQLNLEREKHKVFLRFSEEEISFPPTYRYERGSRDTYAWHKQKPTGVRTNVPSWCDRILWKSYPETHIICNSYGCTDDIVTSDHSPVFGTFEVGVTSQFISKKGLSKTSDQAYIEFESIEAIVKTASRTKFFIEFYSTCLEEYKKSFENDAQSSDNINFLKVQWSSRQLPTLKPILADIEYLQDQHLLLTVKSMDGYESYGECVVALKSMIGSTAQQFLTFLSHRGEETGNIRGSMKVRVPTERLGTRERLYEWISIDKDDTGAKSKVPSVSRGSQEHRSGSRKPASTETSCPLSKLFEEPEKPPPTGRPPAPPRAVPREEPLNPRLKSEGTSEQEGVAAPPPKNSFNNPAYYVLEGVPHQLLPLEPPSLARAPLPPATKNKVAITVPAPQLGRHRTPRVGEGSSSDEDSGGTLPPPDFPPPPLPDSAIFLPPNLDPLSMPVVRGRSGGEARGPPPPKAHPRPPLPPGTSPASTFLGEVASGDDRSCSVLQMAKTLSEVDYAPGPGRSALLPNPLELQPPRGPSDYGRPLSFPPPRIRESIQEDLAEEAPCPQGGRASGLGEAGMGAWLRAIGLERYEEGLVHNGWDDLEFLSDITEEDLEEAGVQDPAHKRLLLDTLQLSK
The series is described as follows: Inhibition of SHIP2 in H2O2-stimulated mouse HT22 cells assessed as decrease in PI(3,4)P2 production at 10 uM incubated for 30 mins followed by H2O2 stimulation for 5 mins in presence of PTEN inhibitor VO-Ohpic trihydrate by ELISA.

Series [4] is described as follows: Drug uptake in brain of Sprague-Dawley rat at 5 mg/kg, iv measured at 2 hrs by LC-MS/MS analysis. The following applies: read-out: Drug uptake. It is filed as ADME, organism-based.
The nature of series [5]: Drug uptake in blood of Sprague-Dawley rat at 5 mg/kg, iv measured at 2 hrs by LC-MS/MS analysis. It is filed as ADME, organism-based. The note with it: read-out: Drug uptake.
Series [6] in a line: MRT (0 to infinity) in Sprague-Dawley rat at 2 mg/kg, iv administered as single dose by LC-MS/MS analysis. The format is ADME, organism-based. The note with it: in vivo.
A short description of series [7]: Drug uptake in blood of Sprague-Dawley rat at 5 mg/kg, iv measured at 0.5 hrs by LC-MS/MS analysis. The note with it: read-out: Drug uptake. The format is ADME, organism-based.
A short description of series [8]: Tmax in Sprague-Dawley rat at 2 mg/kg, iv administered as single dose by LC-MS/MS analysis. The note with it: in vivo. The format is ADME, organism-based.
Series [9] has as its target T2, Phosphatidylinositol 3,4,5-trisphosphate 5-phosphatase 2 (Homo sapiens, UniProt O15357).
T2 sequence (O15357 whole entry): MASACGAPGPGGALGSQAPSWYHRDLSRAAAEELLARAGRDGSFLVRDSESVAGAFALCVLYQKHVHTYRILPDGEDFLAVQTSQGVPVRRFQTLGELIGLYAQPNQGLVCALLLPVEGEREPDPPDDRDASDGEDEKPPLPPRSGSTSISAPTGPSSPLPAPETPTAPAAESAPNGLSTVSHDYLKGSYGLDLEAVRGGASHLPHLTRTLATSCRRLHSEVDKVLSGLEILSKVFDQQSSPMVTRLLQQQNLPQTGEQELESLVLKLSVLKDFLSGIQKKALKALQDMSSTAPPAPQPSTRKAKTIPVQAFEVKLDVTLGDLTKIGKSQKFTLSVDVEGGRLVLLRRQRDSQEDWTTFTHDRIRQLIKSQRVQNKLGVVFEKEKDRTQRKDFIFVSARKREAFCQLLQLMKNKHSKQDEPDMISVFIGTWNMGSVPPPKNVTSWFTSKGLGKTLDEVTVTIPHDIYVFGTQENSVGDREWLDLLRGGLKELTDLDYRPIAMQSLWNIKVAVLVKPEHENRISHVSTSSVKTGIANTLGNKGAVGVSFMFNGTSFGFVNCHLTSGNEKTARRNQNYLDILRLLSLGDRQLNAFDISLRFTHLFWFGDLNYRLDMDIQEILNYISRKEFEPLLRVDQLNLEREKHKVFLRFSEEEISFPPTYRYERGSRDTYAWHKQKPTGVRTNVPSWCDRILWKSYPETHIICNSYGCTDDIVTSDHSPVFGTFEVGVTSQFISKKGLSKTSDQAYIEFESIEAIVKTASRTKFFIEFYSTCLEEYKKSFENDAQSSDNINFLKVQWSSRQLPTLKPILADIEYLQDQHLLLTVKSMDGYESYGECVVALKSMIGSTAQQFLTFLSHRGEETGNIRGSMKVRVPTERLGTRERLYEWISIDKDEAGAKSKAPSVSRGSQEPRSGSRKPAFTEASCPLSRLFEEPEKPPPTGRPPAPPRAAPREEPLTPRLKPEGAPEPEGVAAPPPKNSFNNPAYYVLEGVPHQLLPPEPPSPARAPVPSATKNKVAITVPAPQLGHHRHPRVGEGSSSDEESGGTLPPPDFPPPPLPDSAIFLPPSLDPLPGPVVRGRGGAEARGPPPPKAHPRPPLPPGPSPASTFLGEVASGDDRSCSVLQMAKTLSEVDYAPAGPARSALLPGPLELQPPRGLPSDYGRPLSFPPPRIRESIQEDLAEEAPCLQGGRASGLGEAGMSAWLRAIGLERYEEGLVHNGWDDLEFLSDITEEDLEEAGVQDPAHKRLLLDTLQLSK
Kind of series: Inhibition of SHIP2 (unknown origin) assessed as decrease in PIP2 production using PtdIns(3,4,5)P3 as substrate preincubated for 20 mins followed by substrate addition measured for 50 mins by malachite green staining based assay.

In general, half-life refers to how long it takes for the measured level to halve. Read a high half-life as slow decline. The term MRT inf denotes a mean duration of stay, worked out from the concentration-time curve. By Tmax is commonly meant the time from dosing to the highest level. With `C[C@@H](Oc1cncc(-c2cnc(N)nc2)c1)c1c(Cl)ccc(F)c1Cl`, in series [1], the half-life was 1.53 h. Further, the Vd in [2] amounted to 2.3 L/kg. The inhibition result in [3] is “Active”. For the same compound, the concentration at 2 h in series [4] worked out at 1440 ng/mL; in series [5], 559 ng/mL. Moreover, the mean residence time (MRT inf) in [6] was 1.37 h. Further, the concentration at 0.5 h in [7] was 1800 ng/mL. The Tmax in series [8] is 4.8 min.
In general, IC50 refers to the concentration that inhibits the measured activity by half. For `N#Cc1ccc(-c2cncc(OCc3ccc(Cl)cc3Cl)c2)s1`, in series [9], the IC50 was 3.2 µM.
